We go through eight compounds from paper PMC9814901, “One-pot synthesis of cyclic-aminotropiminium carboxylate derivatives with DNA binding and anticancer properties” (Communications Chemistry, 2022).

The term melting point denotes the temperature of the solid-liquid transition.

Molecules are shown by their SMILES.

The test system of one series is ct-DNA duplex. Description: Circular dichroism of ct-DNA with cATC derivatives. It is filed as binding. To be noted: increasing concentration of cATC derivatives. From the text:
Further, we examined the effect of cATC derivatives (6a/6e/6j/6n) on the ct-DNA duplex structure by circular dichroism (CD) studies. We recorded the CD spectra of ct-DNA with the increasing concentration of cATC derivatives (SM, Fig. S24). […] Next, we examined the binding site of cATC derivative (ligand) at the DNA duplex structure by using AutoDock-Vina, a well-reported computational docking program. We performed docking of cATC derivatives (6a/6d/6k) crystal structure (ligand) with dodecamer DNA duplex crystal structure (PDB ID-1BNA) as the receptor. Our docking results strongly support the non-covalent interaction of cATC derivatives (6a/6d/6k) at the DNA-minor groove with the binding affinity ~7.0 Kcal/mole, mostly hydrophobic interactions (SM, Figs. S25–7, Table S8). […] Overall, cATC derivatives non-covalently bind with DNA duplex through the non-intercalative mode without affecting the native duplex structure. Next, we examined the DNA binding affinity of cATC derivatives (6e/6j/6n) by gel-electrophoresis. The different concentrations of human genomic DNA were treated with EtBr (control) and cATC derivatives (6e/6j/6n) and ran on 1% agarose gel (SM, Fig. S28A–D). […] Further, the Microscale thermophoresis (MST) technique was used to calculate the binding affinities of cATC derivatives (6e/6j/6n) (20 µM) with varying concentrations of human genomic DNA (40 fM to 75 pM).
(Circular dichroism is the unequal absorption of left and right circularly polarised light.)

Series [1] has as its system HeLa cells. The series is described as follows: MTS cell viability assay in HeLa. The series is classed as cell-based. The following applies: 10 nM to 50 μM, 18 h. On the procedure:
We investigated the effect of nine cATC derivatives (6b/6d/6e/6f/6i/6j/6k/6l/6n) on cell viability in cancer cell-line HeLa and transformed normal cell-line HEK293. We treated cells with the varying concentrations of the compounds ranging from 10 nM to 50 μM for 18 h (optimized).
MTS assay (CellTiter 96® AQueous One Solution Cell Proliferation Assay (Promega, USA) was used to determine the cell viability. HeLa and HEK293 cells (20,000 cells in each well) were plated in 96 well plate and treated with 6e, 6j, and 6n varying concentrations of the compounds ranging from 10 nM to 50 μM for 18 h. The assay was carried out according to the manufacturer’s instructions. Finally, the plate was read in Varioskan™ LUX multimode microplate reader (Thermo Fisher Scientific) at 490 nm.
Cell scavenging activity was calculated using the following formula:
OD(490nm) (control) – OD(490nm) (Test)/OD(490nm) (control) × 100%
Cell Viability of the cell was calculated using the following formula: […]

Series [2] relates to HeLa cells. Description: cells. To be noted: Homo sapiens, 18 h; read-out: IC50 concentration in (µM), HeLa. The arrangement: MTS cell viability assay, absorbance at 490 nm. As to the method: MTS assay (CellTiter 96® AQueous One Solution Cell Proliferation Assay (Promega, USA) was used to determine the cell viability. HeLa and HEK293 cells (20,000 cells in each well) were plated in 96 well plate and treated with 6e, 6j, and 6n varying concentrations of the compounds ranging from 10 nM to 50 μM for 18 h. The assay was carried out according to the manufacturer’s instructions. Finally, the plate was read in Varioskan™ LUX multimode microplate reader (Thermo Fisher Scientific) at 490 nm. We investigated the effect of nine cATC derivatives (6b/6d/6e/6f/6i/6j/6k/6l/6n) on cell viability in cancer cell-line HeLa and transformed normal cell-line HEK293. We treated cells with the varying concentrations of the compounds ranging from 10 nM to 50 μM for 18 h (optimized). […] Cell scavenging for 6e and 6j at 50 μM was 84.74% and 89.87%, respectively, and for 6n at 30 μM it was 75.43%. Corresponding cell viability was 15.25%, 10.13% and, 24.56%, respectively. Fluorescence signal became visible inside cells at 12 μM, 12 μM, and 20 μM concentrations for 6e, 6j, and 6n, respectively (SM, Figs. S31, S34, S37). […] Scavenging activity for 6e, 6j, and 6n was 61.1%, 18.23%, and 30.1%, respectively at 30 μM concentration (Fig. 5D–F). Corresponding cell viability was 38.82%, 81.76%, and 69.86%, respectively. The IC50 value of all the compounds was at the micromolar (μM) level which is shown in the Supplemental Material (Table S9 and S10).

`O=C([O-])C1C(c2ccccc2)N(Cc2ccccc2)[c+]2cccccc2N1CCc1ccccc1` (stereo not drawn) [Compound 6a, N-benzyl-N-phenylethyl phenyl troponyl dihydropyrazinium carboxylate] had a melting point of 135 to 140 °C. The “effect on B-type duplex CD spectrum of ct-DNA” value in the series with ct-DNA duplex is given as “almost remained unchanged”. In the case of `COc1cc(OC)cc(C2C(C(=O)[O-])N(CCc3ccccc3)c3ccccc[c+]3N2Cc2ccccc2)c1` (stereo not drawn) [Compound 6b], the “effect on HeLa cell proliferation” value in the series with HeLa cells [1] is “no or minimal effect”. Moreover, in the series with HeLa cells [2], the IC50 was greater than 50 µM. As to `O=C([O-])C1C(c2ccc([N+](=O)[O-])cc2)N(Cc2ccccc2)[c+]2cccccc2N1CCc1ccccc1` (stereo not drawn) [Compound 6d, N-Benzyl-N-phenylethyl 4-nitrophenyl troponyl dihydrapyrazine carboxylic acid], the “effect on HeLa cell proliferation” value in the series on HeLa cells [1] is reported as “no or minimal effect”. The IC50 with HeLa cells [2] was greater than 50 µM. For `N#Cc1ccc(C2C(C(=O)[O-])N(CCc3ccccc3)c3ccccc[c+]3N2Cc2ccccc2)cc1` (stereo not drawn) [Compound 6f], the “effect on HeLa cell proliferation” value in the series on HeLa cells [1] is “no or minimal effect”. In addition, in the series with HeLa cells [2], the IC50 was greater than 50 µM. The compound `C#CCN1[c+]2cccccc2N(CCc2ccccc2)C(C(=O)[O-])C1c1ccccc1` (stereo not drawn) [Compound 6i] came in with a melting point of 122 to 125 °C. For the same compound, the “effect on HeLa cell proliferation” value with HeLa cells [1] is “no or minimal effect”. Also, the IC50 in the series with HeLa cells [2] is greater than 50 µM. Compound `CCCCCCCCN1[c+]2cccccc2N(CCc2ccccc2)C(C(=O)[O-])C1c1ccc(F)cc1` (stereo not drawn) [Compound 6k, N-octyl-N-phenylethyl 4-fluorophenyl troponyl dihydrapyrazinium carboxylate] displayed a melting point of 123 to 125 °C. `O=C([O-])C1C(c2ccc(O)cc2)N(C2CCCCC2)[c+]2cccccc2N1CCc1ccccc1` (stereo not drawn) [Compound 6l]: the “effect on HeLa cell proliferation” value with HeLa cells [1] is on record as “no or minimal effect”. For the same compound, the IC50 with HeLa cells [2] was greater than 50 µM.

`O=C([O-])C1C(C=Cc2ccccc2)N(Cc2ccccc2)[c+]2cccccc2N1CCc1ccccc1` (stereo not drawn) [Compound 6n] registered a melting point of 118 to 120 °C.
